Data reported in paper PMC10141604, “Small-Molecule Inhibition of Androgen Receptor Dimerization as a Strategy against Prostate Cancer” (ACS Central Science, 2023).

How the values were obtained:
AR LBD = target: T1, AR LBD (Homo sapiens, UniProt P10275); test: Biolayer interferometry (BLI) binding to purified AR LBD
T1 construct: The AR LBD (663-919) was fused into the pET50b vector with Nus-tag; Nus-tag (cleaved yes); made in house; host or cells: E. coli BL21 (DE3)
Procedure: in 4 L LB media at 37°C until OD600 arrived to 0.6, then supplemented with 0.5 mM Isopropyl β-D-1-Thiogalactopyranoside (IPTG) and 20 μM DHT. After incubated at 16 °C for 16-18 h, the cells were collected by centrifugation at 3,500 × g for 0.5 h. The cell mass was resuspended in Lysis buffer (20 mM Tris -HCL pH 7.4, 5 mM imidazole,150 mM NaCl, 10% Glycerol, 2 mM Dithiothreitol (DTT) and 10 μM DHT) and lysed at 800 bar for at least 5 cycles. The lysis was centrifugated at 14,000 × g for 0.5 h, and the supernatant was loaded to HisTrap TM […] HP column (#17524802, GE Healthcare), followed by washing and eluting steps using 65 mM imidazole and 300 mM imidazole, respectively.
The elution from Ni-NTA were cut by HRV-3C protease, and further purified by […]
The purified AR LBD protein was biotinylated using EZ-Link™ Sulfo-NHS-LC-LC-Biotin (#A35358, ThermoFisher) in 500 μL phosphate -buffered saline with 0.02% Tween -20 (v/v, PBST) buffer for 2 h at 4 °C. […] The kinetics of the AR LBD and M17-B15 association was evaluated by soaking the AR LBD-loaded sensors into wells containing various concentrations of M17 -B15 (6.25, 12.5, 25, 50, 100 μM) for 60 s, followed by dissociation of M17 -B15 by soaking the sensors in the PBST buffer for 60 s. The kinetics values were calculated by fitting the kinetic data based on a 1:1 binding model using Forté Bio data analysis (v.11.1) software .

AR LBP = target: T2, AR LBP (Rattus norvegicus, UniProt P15207); test: Competitive ligand-binding assay (PolarScreen AR competitor assay)
T2 construct: purchased Invitrogen Life Technologies A15880
Procedure: Competitive Ligand Binding Assay
The binding affinities of M17 and M17-B15 to the LBP of AR LBD were determined
using PolarScreen™ Androgen Receptor Competitor Assay Kit (#A15880, Invitrogen Life
Technologies) according to the user manual. […]

AR LBD dimer = target: T3, AR LBD dimer (Homo sapiens, UniProt P10275); test: SAXS and CXMS analysis of AR LBD dimerization; assay type: biochemical
T3 construct: The AR LBD (663-919) was fused into the pET50b vector with Nus-tag; Nus-tag (cleaved yes); made in house; host or cells: E. coli BL21 (DE3)
Procedure: 30 μM AR LBD protein was crosslinked with a 50× molar excess of freshly prepared BS3 (#21580, ThermoFisher) in 20 mM HEPES (pH 7.4), 5% Glycerol, 150 mM NaCl, 10 μM DHT, with or without 90 μM M17-B15. The cross-linking reaction was conducted at room temperature with gentle mixing, and was quenched after 45 min with the addition of Tris-HCl buffer (pH 8.0) to a concentration of 20 mM.
Cross-linked proteins were precipitated with 6-fold volume of pre-cooled acetone for 2 h at -20 °C. Centrifuge at 14,000 rpm for 20 min, and discard the supernatant. Then added 20 μL 100 mM Tris-HCl buffer (pH 8.5), 8 M urea, and ultrasound for 20 min to assist protein dissolution. 5 mM reducing agent TCEP, 10 mM alkylating agent iodoacetamide, 1 mM CaCl2 and 20 mM methylamine were added in tandem. And 3-fold volume of 100 mM Tris pH 8.5 was added to dilute urea to 2 M. Then added trypsin (the mass ratio of enzyme to protein is 1:50) and digested the protein samples at 37 °C for 14 h. Finally, quenched the digestion reaction by adding formic acid with a final […]
An Easy nLC 1000 system (ThermoFisher) coupled to a Velos Pro Orbitrap Elite mass spectrometer (ThermoFisher) was used for mass spectrometry analysis. The resulting peptide mixture was vacuum-centrifuged to dryness, and reconstituted in 0.1% formic acid. […]
respectively. […] The scattering profile for matching buffer was also recorded and was subtracted. […]

T3 sequence (P10275 663-919): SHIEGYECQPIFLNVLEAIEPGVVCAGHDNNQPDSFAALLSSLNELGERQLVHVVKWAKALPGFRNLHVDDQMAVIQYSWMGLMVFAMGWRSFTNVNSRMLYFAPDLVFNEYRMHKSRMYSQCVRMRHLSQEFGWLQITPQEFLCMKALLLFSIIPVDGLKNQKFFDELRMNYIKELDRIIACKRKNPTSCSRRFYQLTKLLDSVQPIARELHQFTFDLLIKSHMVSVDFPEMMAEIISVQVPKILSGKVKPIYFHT
T1 sequence (P10275 663-919): as above
T2 sequence (P15207 651-882 limits assumed): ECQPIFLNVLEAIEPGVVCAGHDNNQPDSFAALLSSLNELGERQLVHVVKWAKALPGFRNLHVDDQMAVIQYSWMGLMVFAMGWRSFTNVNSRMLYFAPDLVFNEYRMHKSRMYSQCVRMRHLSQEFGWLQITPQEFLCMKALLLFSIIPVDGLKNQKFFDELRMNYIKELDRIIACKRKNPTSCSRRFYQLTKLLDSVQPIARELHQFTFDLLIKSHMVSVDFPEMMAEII

CC(=O)Cc1nsc(NC(=O)c2cc(-c3cccc(C(F)(F)F)c3)oc2C)n1 [Compound M17-B15]
Kd (AR LBD; 1:1 binding model, read-out: equilibrium dissociation constant (KD)): 13.2 µM | koff (AR LBD; read-out: Kd (dissociation rate)): 0.033 s⁻¹ | binding to the conventional LBP (AR LBP): does not target the LBP | Dmax value of the AR LBD (SAXS) (AR LBD dimer; upon addition of compound): markedly reduced | proportion of the AR LBD dimer (AR LBD dimer; with DHT, 20% without M17-B15): 15%
